Measurements as given in PMC11320581 (ACS Infectious Diseases, 2024).

Legend:
[1] = test system: B. anthracis gyrase; assay type: biochemical, Bacillus anthracis
[2] = biological target: E. coli gyrase (Escherichia coli, UniProt P0AES4+P0AES6); assay type: biochemical
[3] = test system: M. tuberculosis gyrase; conditions: cited from earlier work

Sequence of E. coli gyrase (P0AES4 whole entry, one chain of several): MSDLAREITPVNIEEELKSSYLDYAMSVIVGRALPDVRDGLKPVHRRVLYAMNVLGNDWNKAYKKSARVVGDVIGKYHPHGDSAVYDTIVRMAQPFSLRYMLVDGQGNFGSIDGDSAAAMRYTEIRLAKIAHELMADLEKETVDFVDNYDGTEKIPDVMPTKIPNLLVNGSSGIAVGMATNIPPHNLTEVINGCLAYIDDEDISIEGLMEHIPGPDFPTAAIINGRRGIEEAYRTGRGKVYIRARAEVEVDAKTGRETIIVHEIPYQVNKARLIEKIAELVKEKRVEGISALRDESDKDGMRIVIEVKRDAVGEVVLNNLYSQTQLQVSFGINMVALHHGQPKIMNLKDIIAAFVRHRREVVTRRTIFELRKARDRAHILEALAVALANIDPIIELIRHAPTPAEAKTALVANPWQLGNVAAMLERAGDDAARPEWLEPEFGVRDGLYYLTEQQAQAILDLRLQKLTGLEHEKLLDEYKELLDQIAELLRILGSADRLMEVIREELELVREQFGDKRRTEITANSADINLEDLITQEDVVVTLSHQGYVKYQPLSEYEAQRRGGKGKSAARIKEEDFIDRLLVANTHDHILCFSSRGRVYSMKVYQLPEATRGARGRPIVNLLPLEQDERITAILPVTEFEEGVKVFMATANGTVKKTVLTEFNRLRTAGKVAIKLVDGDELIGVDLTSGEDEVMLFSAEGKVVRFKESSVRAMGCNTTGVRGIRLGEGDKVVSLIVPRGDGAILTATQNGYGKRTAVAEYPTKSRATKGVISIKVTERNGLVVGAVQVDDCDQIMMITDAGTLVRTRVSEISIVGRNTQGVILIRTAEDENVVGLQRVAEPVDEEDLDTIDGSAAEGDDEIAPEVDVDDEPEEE

SMILES: CC1CN2c3c(cc4c(OCC5CCC(=O)N5)noc4c3F)CC3(C(=O)NC(=O)NC3=O)C2C(C)O1 (centres unmarked) [H3D-005722]
- single-stranded compared with double-stranded DNA breaks with gyrase [1]: higher levels of single-stranded than double-stranded DNA breaks
- total DNA breaks with gyrase relative to topoisomerase IV [1]: higher levels of total DNA breaks mediated by gyrase over topoisomerase IV
- single-stranded compared with double-stranded DNA breaks with gyrase [2]: higher levels of single-stranded than double-stranded DNA breaks
- total DNA breaks with gyrase relative to topoisomerase IV [2]: higher levels of total DNA breaks mediated by gyrase over topoisomerase IV
- DNA cleavage mediated by M. tuberculosis gyrase compared with zoliflodacin [3]: higher levels

SMILES: C[C@@H]1CN2c3c(cc4c(N5C(=O)OC[C@@H]5C)noc4c3F)CC3(C(=O)NC(=O)NC3=O)[C@H]2[C@H](C)O1 [zoliflodacin, Zoliflodacin]
- double-stranded DNA breaks with gyrase relative to topoisomerase IV [1]: ~2 times
- single-stranded compared with double-stranded DNA breaks with gyrase [1]: more gyrase-mediated single-stranded than double-stranded DNA breaks
- total DNA breaks with gyrase relative to topoisomerase IV [1]: 2.5 to 3 times
- double-stranded DNA breaks with gyrase relative to topoisomerase IV [2]: ~2 times
- single-stranded compared with double-stranded DNA breaks with gyrase [2]: more gyrase-mediated single-stranded than double-stranded DNA breaks
- total DNA breaks with gyrase relative to topoisomerase IV [2]: 2.5 to 3 times
